Counter-ions that a name gives are not always drawn.
System: Ls-174t human colon cancer
Test: Antitumor therapeutic efficacy test in vivo
Set-up: species or system BALB/cA-nude mice
Method: [Antitumor Therapeutic Efficacy Test In Vivo]
Preparation methods: The drug was diluted with saline solution to required concentration.
Experimental animals: BALB/cA-nude mice, 6-7 weeks, ♀, purchased from Shanghai Slac Laboratory Animal Co., LTD. […] Environment: SPF level.
After tumors grew to the 150-300 mm^3, mice were randomly divided into teams (d0). The volume of tumors and the weight of the mice were measured and recorded for 2-3 times per week. The tumor volume (V) was calculated by the follow equation: V=½×a×b^2 wherein a, b represent length and width respectively.

## CCc1c2c(nc3ccc(OC(=O)N4CCC(N5CCCCC5)CC4)cc13)-c1cc3c(c(=O)n1C2)COC(=O)[C@]3(O)CC [CPT-11, Irinotecan hydrochloride]
  growth of Ls-174t human colon cancer in nude mice: inhibited the growth of Ls-174t human colon cancer in nude mice significantly
10 mg/kg, IV, D0, 3
  % T/C D12: 45%
  Tumor inhibition rate (%) D12: 55%
10 mg/kg, IV, D0, 3, number of animals
  Partial regression: 0

— patent publication US10022365B2 (Jiangsu Hengrui Medicine Co., Ltd., priority 2009, dated 2018)
